EPA's ToxRefDB 2

Key:
[1] = tested on: mouse; details: Multigenerational reproductive toxicity study, cd1, Oral, Water, dose end: 2 generation
[2] = tested on: mouse; details: Subchronic inhalation toxicity, other, Whole-Body, dose end: 13 week, group: systemic
[3] = tested on: mouse; details: Prenatal developmental toxicity study, other, Oral, Gavage/Intubation, dose end: 15 GD, group: developmental
[4] = group: offspring, developmental / developmental malformation / bone / domed head + developmental / developmental malformation / nose / ecchymosis + systemic…
[5] = group: parental, systemic / organ weight / epididymis / absolute + systemic / organ weight / liver / absolute + systemic / organ weight / liver / relative to…
[6] = group: parental, systemic / organ weight / epididymis / absolute + systemic / organ weight / liver / absolute + systemic / pathology gross / sperm measure / …
[7] = group: reproductive, reproductive / reproductive performance / fertility / fertility + reproductive / offspring survival early / litter size / litter size + …
[8] = systemic / clinical chemistry / alanine aminotransferase (alt/sgpt) / alanine aminotransferase (alt/sgpt) + systemic / clinical chemistry / …
[9] = systemic / clinical chemistry / cholesterol / cholesterol + systemic / hematology / erythrocyte (rbc) count differential / erythrocyte (rbc…
[10] = developmental / developmental malformation / general / [other] + developmental / developmental malformation / general / crown-rump length + …
[11] = developmental / developmental malformation / general / crown-rump length + systemic / in life observation / body weight / fetal weight

Question: `CN(C)C=O` [N,N-Dimethylformamide] was tested. Which LEL [1, 4] did it give?
Answer: Its LEL is 545 mg/kg/day.

Question: And the LOAEL [1, 4]?
Answer: Its LOAEL is > 1030 mg/kg/day.

Question: What about the NEL [1, 4] of the same compound?
Answer: The NEL was 185 mg/kg/day.

Question: And the NOAEL [1, 4]?
Answer: The NOAEL was ≥ 1030 mg/kg/day.

Question: What about the LEL [1, 5] of the same compound?
Answer: Its LEL is 185 mg/kg/day.

Question: What about the NEL [1, 5] of the same compound?
Answer: The NEL was < 185 mg/kg/day.

Question: What about the LOAEL [1, 6] of the same compound?
Answer: Its LOAEL is > 1030 mg/kg/day.

Question: What about the NOAEL [1, 6] of the same compound?
Answer: Its NOAEL is ≥ 1030 mg/kg/day.

Question: And the NEL ([1]; group: reproductive, reproductive / reproductive performance / fertility / fertility)?
Answer: The NEL was 185 mg/kg/day.

Question: And the LEL [1, 7]?
Answer: Its LEL is 545 mg/kg/day.

Question: What about the LOAEL [1, 7] of the same compound?
Answer: The LOAEL was > 1030 mg/kg/day.

Question: And the NOAEL [1, 7]?
Answer: Its NOAEL is ≥ 1030 mg/kg/day.

Question: What about the LOAEL [2, 8] of the same compound?
Answer: The LOAEL was > 800 ppm.

Question: What about the NOAEL [2, 8] of the same compound?
Answer: The NOAEL was ≥ 800 ppm.

Question: And the LEL [2, 9]?
Answer: The LEL was 50 ppm.

Question: What about the NEL [2, 9] of the same compound?
Answer: Its NEL is < 50 ppm.

Question: What about the LOAEL [3, 10] of the same compound?
Answer: The LOAEL was > 548 mg/kg/day.

Question: And the NOAEL [3, 10]?
Answer: Its NOAEL is ≥ 548 mg/kg/day.

Question: And the LEL [3, 11]?
Answer: Its LEL is 182 mg/kg/day.

Question: And the NEL [3, 11]?
Answer: Its NEL is < 182 mg/kg/day.
